Experiment: Human HepG2 cell viability assay in 384 well format
Assay type: toxicity, cell-based
Design: dose 125 nL, time 70.5 hour; cytotoxicity at 70.5 h: concentration not given beside the values
Details: HepG2 cells, read-out: Inhibition

SMILES | cytotoxicity at 70.5 h [%]
Cc1nn(-c2ccccc2)cc1C(=O)N1CCCC(n2ccnc2C)C1 (stereo not given) | -4.52
COc1cccc(CNC(=O)CN2CCCC(Cn3cncn3)C2)c1 (stereo not given) | -1.72
O=C(CN1CCCC(Cn2cncn2)C1)NCc1ccccc1F (stereo not given) | -4.63
O=C(CCc1cscn1)N1CCCC(n2cncn2)C1 (stereo not given) | 10.8
Cc1ccc(CNC(=O)CN2CCCC(Cn3cncn3)C2)cc1 (stereo not given) | -2.99
Cc1cc(C)n(CC2CCCCN2C(=O)c2ccc3c(c2)COC3)n1 (stereo not given) | 2.1
CN(Cc1ccc(N2CCOCC2)cc1)C(=O)Cn1cccnc1=O | -3.91
CCN1CCN(C(=O)NCc2cccnc2-n2cccn2)CC1 | 10.5
Cc1ccc(OCC(O)CN2CCc3c(ncn3C3CC3)C2)cc1 (stereo not given) | -4.79
Cc1cnn(C2CCCN(C(=O)c3cn(-c4ccccc4)nc3C)C2)c1 (stereo not given) | -6.2
Cc1cnn(CC2CCCCN2CCCS(=O)(=O)N(C)C)c1 (stereo not given) | 18.7
CCNc1cc2c(nn1)CCN(C(=O)c1cc(C)no1)C2 | -3.88
Cc1cnn(CC2CCCCN2CCS(C)(=O)=O)c1 (stereo not given) | -1.02
Cc1nn(C)cc1C(=O)N1CCCC(n2cncn2)C1 (stereo not given) | -9.27
CCNc1cc2c(nn1)CCN(C(=O)c1cc3cccc(C)c3o1)C2 | -2.31
Cc1cnc(CN(C)C2CCN(Cc3nc4ccccc4o3)C2)o1 (stereo not given) | 15.3
COc1ncccc1CNC(=O)c1ccco1 | 18
Cc1noc(C)c1C(=O)NCc1ccc(N2CCCCCC2)nc1 | -6.77
CCN1CCN(c2ccc(CNC(=O)c3sccc3C)cn2)CC1 | -9.08
CC(Cn1cccn1)NC(=O)NCc1cccnc1OC(C)C (stereo not given) | -4.84
Cc1noc(C)c1C(=O)NCc1ccc(N2CCOCC2)nc1 | -8.43
CCN1CCN(c2ccc(CNC(=O)Cc3c(C)noc3C)cn2)CC1 | -10.4

SMILES | cytotoxicity at 70.5 h [%]
COc1ncccc1CNC(=O)NCc1ccco1 | -1.48
CC(C)C(=O)N(C)CC(=O)Nc1ccc(Br)cn1 | -2.8
CN(CC(=O)Nc1ccc(Br)cn1)C(=O)C(C)(C)C | -6.91
CC(C)CCC(=O)N(C)CC(=O)Nc1ccc(Br)cn1 | 43.7
Cc1cnn(CC2CN(CC(=O)N(C)Cc3ccccc3)CCO2)c1 (stereo not given) | 2.55
CSC(C)C(=O)N(C)CC(=O)Nc1ccc(Br)cn1 (stereo not given) | -3.72
CCC(CC)C(=O)N(C)CC(=O)Nc1ccc(Br)cn1 | -1.35
c1cnn(CC2CCCCN2Cc2nc(-c3ccoc3)no2)c1 (stereo not given) | 3.95
c1cncc(-c2noc(CN3CCCC3Cn3cccn3)n2)c1 (stereo not given) | -3.02
COc1ccc(C(=O)N2CCCS2(=O)=O)cc1OC | -1.63
c1cncc(-c2noc(CN3CCCCC3Cn3cccn3)n2)c1 (stereo not given) | 1.66
CC(C)CC(=O)N(C)CC(=O)Nc1ccc(Br)cn1 | 0.489
Cc1nc(CN(C)C2CCN(Cc3nc4ccccc4n3C)C2)no1 (stereo not given) | -2.1
Cc1cccc(-c2noc(CN3CCCC3Cn3cncn3)n2)c1 (stereo not given) | -1.92
Cc1cnc(CN(C)C2CCN(Cc3nccn3C)C2)o1 (stereo not given) | -3.1
Cc1cc(CN(C)C(=O)c2ccc(F)c(C(F)(F)F)c2)no1 | -1.4
Cc1nc(C(=O)N2CCCC2c2noc(C3CC3)n2)c[nH]1 (stereo not given) | -0.671
Cc1cc(CN(C)C(=O)c2ccc(OCC(F)(F)F)nc2)no1 | 0.93
CCc1nc(CC(=O)N2CCCCC2Cn2cccn2)cs1 (stereo not given) | 19
CCc1nc(C2CCCN2C(=O)c2csc(COC)n2)no1 (stereo not given) | -0.0198
OC(CNCCn1cccn1)c1cccc(F)c1 (stereo not given) | -7.66
Cc1noc(C(C)N2CCN(Cc3nnc(C4CC4)o3)CC2)n1 (stereo not given) | -3.98

SMILES | cytotoxicity at 70.5 h [%]
CC(Cn1cccn1)NCC(=O)NCCc1cccs1 (stereo not given) | -4.39
CC(C)c1nc(C2CCCN2CC(=O)Nc2cccnc2)no1 (stereo not given) | -14
CCc1nc(C2CCCN2Cc2cc(=O)n(C)c(=O)n2C)no1 (stereo not given) | -16.4
Cc1cc(NC(=O)CN2CCCC2c2noc(C(C)C)n2)on1 (stereo not given) | -14.1
CCn1nc2c(cc1=O)CN(Cc1nc(-c3cccs3)no1)CC2 | -12.8
CC(Cn1cccn1)NC(=O)Cc1csc(C(C)C)n1 (stereo not given) | -10.5
Cn1ccc(C(=O)NCc2ccc(N3CCCCC3)nc2)cc1=O | 18.6
CC(C)NC(=O)c1cc(Br)c2c(c1)OCCO2 | -6.96
CSc1ccccc1C(=O)NCCCN1CCc2ccccc2C1 | -5.68
Cc1cc(C)n(CC2CN(CCOc3ccccc3F)CCO2)n1 (stereo not given) | -2.73
CC(C)OCc1cccc(CNc2cnn(C)c(=O)c2Cl)c1 | 3.32
CC(C)C(C)NC(=O)c1cc(Br)c2c(c1)OCCO2 (stereo not given) | -4.14
Cc1nc(C)n(CC2CN(CCOc3ccccc3C#N)CCO2)n1 (stereo not given) | -8.64
Cc1nc(C)n(CC2CN(CCOc3ccc(C#N)cc3)CCO2)n1 (stereo not given) | -13.3
Cc1nc(C2CCCN(C(=O)COCCc3ccccc3)C2)no1 (stereo not given) | -6.43
CCc1csc(C2CCCN(C(=O)COc3cc(C)on3)C2)n1 (stereo not given) | -8.8
Cc1cn2c(n1)CCC(NC(=O)c1[nH]nc(C)c1Br)C2 (stereo not given) | 13.2
Cc1cc(OCC(=O)N2CCCC(c3noc(C(C)C)n3)C2)no1 (stereo not given) | -1.68
Cc1nnc(NC(=O)CN2CCCC2c2noc(C(C)C)n2)s1 (stereo not given) | -8.98
Cc1ccc(OCCN2CCCC(c3cc(C(N)=O)[nH]n3)C2)cc1 (stereo not given) | -5.38
Cc1ccccc1OCCN1CCCC(c2cc(C(N)=O)[nH]n2)C1 (stereo not given) | -6.71
Cc1cccc(OCCN2CCCC(c3cc(C(N)=O)[nH]n3)C2)c1 (stereo not given) | -7.94

SMILES | cytotoxicity at 70.5 h [%]
Cc1cc(NC(=O)CN2CCCC2c2noc(C)n2)n(C(C)(C)C)n1 (stereo not given) | -7.96
Cc1nc(C(=O)N2CCCC2c2cnn(C)c2)ccc1C#N (stereo not given) | 20.3
Cc1noc(CCCC(=O)NC(C)c2ccccn2)n1 (stereo not given) | -0.329
COc1c(CNCc2cnn(C)c2)c(C(C)C)nn1C | 7.69
CN(CC(=O)N(C)C1CCCCC1)C1CCc2ccccc21 (stereo not given) | -3.54
Cc1c(C(=O)NC(CN2CCCC2=O)c2ccccc2)cnn1C (stereo not given) | 0.932
CCN(Cc1ccc(OC)c(F)c1)C(=O)c1ccc(C)[nH]c1=O | -3.76
CC(C)(C)n1cc(C(=O)N2CCN(Cc3ccccc3F)CC2)cn1 | 5.09
CC(=O)N1CCN(C(=O)CCOc2ccc(C(C)C)cc2)CC1 | -3.31
Cc1nc(-c2ccsc2)ccc1C(=O)NCCC1CCCO1 (stereo not given) | 28.6
CNC(=O)NC(=O)CN1CCC(c2cccc(F)c2)C1 (stereo not given) | -4.22
Cc1cc(NC(=O)CN2CCn3c(nnc3C3CC3)C2)n(C)n1 | 7.81
CNc1nc(CNC(=O)Nc2cccc(F)c2C)cs1 | -7.06
Cc1noc(CCCC(=O)NC(C)c2cn(-c3ccccc3)nn2)n1 (stereo not given) | -3
CNc1nc(CNC(=O)Nc2ccccc2-c2noc(C)n2)cs1 | 7.32
COc1c(CNCc2ccc(CN(C)C)cc2)c(C(C)C)nn1C | 2.15
Cc1noc(C)c1CCC(=O)N1CCCN(Cc2cscn2)CC1 | -2.08
OC(COCc1ccccc1Cl)CN1CC(n2cccn2)C1 (stereo not given) | 4.22
Cc1ncc(CNC2CCCN(Cc3noc(C4CC4)n3)C2)s1 (stereo not given) | -2.63
